Test results: article PMC6370209, “Rapid and sensitive detection of NADPH via mBFP-mediated enhancement of its fluorescence” (PLoS ONE, 2019)

Columns and labels:
[1] = target: T1, mBFP (metagenome-derived blue fluorescent protein) (uncultured bacterium, UniProt D6NKF4); assay: fluorescence enhancement of NADPH upon mBFP addition (ex […] nm, em […] nm); type: binding; conditions: […] Tris-HCl pH […] °C
T1 construct: full length, 248 amino acids, N-terminal 6-His tag kept (pQE30), expressed in E. coli XL1-Blue
T1 sequence (D6NKF4 1-248): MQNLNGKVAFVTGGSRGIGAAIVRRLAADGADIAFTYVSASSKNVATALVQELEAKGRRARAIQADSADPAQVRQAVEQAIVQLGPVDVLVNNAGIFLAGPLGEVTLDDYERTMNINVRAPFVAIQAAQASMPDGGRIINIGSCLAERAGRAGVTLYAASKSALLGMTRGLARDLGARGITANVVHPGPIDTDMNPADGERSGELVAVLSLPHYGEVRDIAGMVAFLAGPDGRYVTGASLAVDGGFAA

[2] = target: T1, mBFP (metagenome-derived blue fluorescent protein); assay: competition with NADPH, attenuation of mBFP-NADPH fluorescence; type: binding; conditions: […] Tris-HCl pH […] °C; competitive with NADPH; excess NADP+
NAD(H) kinase (MfnK) = target: T2, NAD(H) kinase (MfnK) (Micrococcus luteus, UniProt Q8VUL9); assay: NADPH formation detected by mBFP fluorescence; type: biochemical; conditions: 50 mM Tris-HCl pH 7.5, 0.1 mM MgCl2, 0.5 mM ATP, 0.5 mM NADH
T2 construct: full-length gene from genomic DNA, C-terminal His tag (pET-22b(+)), expressed in E. coli BL21(DE3), purified
T2 sequence (Q8VUL9 1-362): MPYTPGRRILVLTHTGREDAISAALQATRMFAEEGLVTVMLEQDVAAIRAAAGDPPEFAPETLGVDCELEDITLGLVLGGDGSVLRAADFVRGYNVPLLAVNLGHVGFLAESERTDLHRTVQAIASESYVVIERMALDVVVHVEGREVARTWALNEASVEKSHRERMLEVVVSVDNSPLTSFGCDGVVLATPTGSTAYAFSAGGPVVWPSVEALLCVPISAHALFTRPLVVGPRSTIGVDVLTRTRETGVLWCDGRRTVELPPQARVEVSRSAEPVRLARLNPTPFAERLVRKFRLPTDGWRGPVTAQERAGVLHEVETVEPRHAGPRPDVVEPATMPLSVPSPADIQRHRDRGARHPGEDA

## NC(=O)C1=CN([C@@H]2O[C@H](COP(=O)(O)OP(=O)(O)OC[C@H]3O[C@@H](n4cnc5c(N)ncnc54)[C@H](OP(=O)(O)O)[C@@H]3O)[C@@H](O)[C@H]2O)C=CC1 [NADPH]
[1]
  fluorescence enhancement of NADPH upon mBFP addition (ex 350 nm, em 450 nm): An immediate enhancement of fluorescence was detected when the purified mBFP was added

## NC(=O)c1ccc[n+]([C@@H]2O[C@H](COP(=O)(O)OP(=O)(O)OC[C@H]3O[C@@H](n4cnc5c(N)ncnc54)[C@H](OP(=O)(O)O)[C@@H]3O)[C@@H](O)[C@H]2O)c1 [NADP^+]
[2]
  competition with NADPH, attenuation of mBFP-NADPH fluorescence: excess NADP^+ resulted in competition for mBFP binding and attenuated the NADPH fluorescence enhancement

## NC(=O)C1=CN([C@@H]2O[C@H](COP(=O)(O)OP(=O)(O)OC[C@H]3O[C@@H](n4cnc5c(N)ncnc54)[C@H](O)[C@@H]3O)[C@@H](O)[C@H]2O)C=CC1 [NADH]
NAD(H) kinase (MfnK)
  NADPH formation detected by mBFP fluorescence: enzymatic conversion of NADH to NADPH by MfnK as a function of the NADH amount
